Drawing on patent US20240109917A1 (ACTELION PHARMACEUTICALS LTD, priority 2020, published 2024), this text covers IC50 for 25 compounds.

Test [1] deals with PDGFRβ (Rattus norvegicus (Rat), UniProt Q05030). Put plainly: PDGFRβ Cellular Assay (PDGFRb P-Y751 HTRF in A10 cells stimulated with PDGF-BB). The format is cell-based. As to conditions: read-out: PDGFR Cellular IC50. Summed up: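 Rat A10 cells, plated overnight, were treated with compound for 3 hours, then stimulated with PDGF-BB (working stock 100 ng/mL in 10% FBS medium). After lysis, PDGFRβ P-Y751 was detected by HTRF.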

Test [2] deals with Tb-labeled inactive PDGFRβ (Homo sapiens (Human), UniProt P09619). Put plainly: PDGFRβ LanthaScreen Assay. The class given is binding. As to conditions: read-out: PDGFR Lantha IC50.

Each structure is given as a SMILES string.

Chain of Tb-labeled inactive PDGFRβ (P09619 33-1106): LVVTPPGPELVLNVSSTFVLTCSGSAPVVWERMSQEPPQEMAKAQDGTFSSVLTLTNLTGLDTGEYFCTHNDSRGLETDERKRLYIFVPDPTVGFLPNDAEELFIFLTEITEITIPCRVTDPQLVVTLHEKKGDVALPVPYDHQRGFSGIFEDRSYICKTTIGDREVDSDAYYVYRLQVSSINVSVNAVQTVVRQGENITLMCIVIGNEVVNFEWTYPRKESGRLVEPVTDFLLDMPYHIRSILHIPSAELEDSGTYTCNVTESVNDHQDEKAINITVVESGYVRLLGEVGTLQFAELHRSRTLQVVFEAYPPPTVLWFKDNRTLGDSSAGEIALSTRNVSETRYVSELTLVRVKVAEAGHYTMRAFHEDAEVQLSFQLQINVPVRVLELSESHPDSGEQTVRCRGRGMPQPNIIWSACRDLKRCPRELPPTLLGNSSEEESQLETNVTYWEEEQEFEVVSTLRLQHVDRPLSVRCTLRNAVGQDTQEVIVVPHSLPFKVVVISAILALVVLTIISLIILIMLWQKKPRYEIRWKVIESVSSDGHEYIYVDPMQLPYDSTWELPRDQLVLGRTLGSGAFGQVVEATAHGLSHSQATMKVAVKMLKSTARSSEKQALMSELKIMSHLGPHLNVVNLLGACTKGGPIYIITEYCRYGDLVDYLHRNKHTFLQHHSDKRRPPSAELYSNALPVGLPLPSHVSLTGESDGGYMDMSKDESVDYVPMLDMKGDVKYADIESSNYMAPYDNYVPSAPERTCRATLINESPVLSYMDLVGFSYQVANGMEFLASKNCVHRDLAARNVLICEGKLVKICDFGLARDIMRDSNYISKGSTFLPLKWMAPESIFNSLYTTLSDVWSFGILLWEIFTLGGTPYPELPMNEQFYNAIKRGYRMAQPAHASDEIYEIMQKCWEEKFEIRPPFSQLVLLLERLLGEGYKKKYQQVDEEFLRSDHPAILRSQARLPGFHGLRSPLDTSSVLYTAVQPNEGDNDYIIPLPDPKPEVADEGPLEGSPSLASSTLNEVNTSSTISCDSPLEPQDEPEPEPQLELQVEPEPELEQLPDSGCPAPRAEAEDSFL
Chain of PDGFRβ (Q05030 32-1097): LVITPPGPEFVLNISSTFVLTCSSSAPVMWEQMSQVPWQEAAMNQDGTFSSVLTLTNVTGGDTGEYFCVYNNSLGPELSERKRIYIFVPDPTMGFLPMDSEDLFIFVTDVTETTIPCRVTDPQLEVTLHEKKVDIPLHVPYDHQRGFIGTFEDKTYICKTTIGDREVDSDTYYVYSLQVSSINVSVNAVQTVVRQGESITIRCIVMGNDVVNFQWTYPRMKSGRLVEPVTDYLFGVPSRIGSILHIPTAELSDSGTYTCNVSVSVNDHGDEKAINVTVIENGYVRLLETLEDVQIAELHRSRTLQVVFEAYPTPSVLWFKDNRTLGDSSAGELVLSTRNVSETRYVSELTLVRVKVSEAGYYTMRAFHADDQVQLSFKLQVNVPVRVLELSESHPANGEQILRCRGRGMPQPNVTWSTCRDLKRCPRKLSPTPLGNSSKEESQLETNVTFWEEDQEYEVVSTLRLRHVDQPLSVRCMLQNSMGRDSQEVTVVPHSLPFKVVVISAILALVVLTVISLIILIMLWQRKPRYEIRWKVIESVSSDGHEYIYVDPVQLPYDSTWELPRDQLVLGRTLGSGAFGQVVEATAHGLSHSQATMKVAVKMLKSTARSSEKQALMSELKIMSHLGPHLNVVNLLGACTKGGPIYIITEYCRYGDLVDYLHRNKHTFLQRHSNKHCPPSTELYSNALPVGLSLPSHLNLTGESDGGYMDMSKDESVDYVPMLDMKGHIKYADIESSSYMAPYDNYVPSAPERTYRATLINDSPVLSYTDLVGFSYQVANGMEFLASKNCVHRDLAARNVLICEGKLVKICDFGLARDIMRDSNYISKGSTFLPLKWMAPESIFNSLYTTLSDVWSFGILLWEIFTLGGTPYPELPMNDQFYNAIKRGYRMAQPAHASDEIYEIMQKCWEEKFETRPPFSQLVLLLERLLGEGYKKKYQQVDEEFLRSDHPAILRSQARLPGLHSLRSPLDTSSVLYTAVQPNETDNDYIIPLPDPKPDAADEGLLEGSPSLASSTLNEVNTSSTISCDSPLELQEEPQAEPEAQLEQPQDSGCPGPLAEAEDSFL

Turning to `Cc1ncc(C(=O)NCCN2CCC3(CC3)C2)cc1NC(=O)c1cnn2cc(-c3ccncc3)sc12` [Example 153, N-(5-((2-(5-azaspiro[2.4]heptan-5-yl)ethyl)carbamoyl)-2-methylpyridin-3-yl)-2-(pyridin-4-yl)pyrazolo[5,1-b]thiazole-7-carboxamide], the figures for the IC50 in test [1] and in test [2] were 106 nM and 18 nM, respectively.
For `Cc1ncc(C(=O)NCCN2CCC(F)(F)CC2)cc1NC(=O)c1cnn2cc(-c3ccncc3)sc12` [Example 154, N-(5-((2-(4,4-difluoropiperidin-1-yl)ethyl)carbamoyl)-2-methylpyridin-3-yl)-2-(pyridin-4-yl)pyrazolo[5,1-b]thiazole-7-carboxamide] the same measures were 8.7 nM and 2.4 nM.
Consider `Cc1ncc(C(=O)NCCN2CC(C)(C)C2)cc1NC(=O)c1cnn2cc(-c3ccncc3)sc12` [Example 155, N-(5-((2-(3,3-dimethylazetidin-1-yl)ethyl)carbamoyl)-2-methylpyridin-3-yl)-2-(pyridin-4-yl)pyrazolo[5,1-b]thiazole-7-carboxamide], for which the IC50 came out at 153 nM in test [1] and 39.4 nM in test [2].
As for `Cc1ncc(C(=O)NCCN2CCC(C)(C)C2)cc1NC(=O)c1cnn2cc(-c3ccncc3)sc12` [Example 156, N-(5-((2-(3,3-dimethylpyrrolidin-1-yl)ethyl)carbamoyl)-2-methylpyridin-3-yl)-2-(pyridin-4-yl)pyrazolo[5,1-b]thiazole-7-carboxamide], the values for the IC50 in test [1] and in test [2] were 26.2 nM and 9.8 nM, respectively.
Turning to `Cc1ncc(C(=O)NCCN2CCC(F)(F)CC2)cc1NC(=O)c1cnn2cc(-c3cccnc3)sc12` [Example 157, N-(5-((2-(4,4-difluoropiperidin-1-yl)ethyl)carbamoyl)-2-methylpyridin-3-yl)-2-(pyridin-3-yl)pyrazolo[5,1-b]thiazole-7-carboxamide], the IC50 was 21.2 nM in test [1] and 5.9 nM in test [2].
In the same order, the values of `Cc1ncc(C(=O)NCCN2CC(C)(C)C2)cc1NC(=O)c1cnn2cc(-c3cccnc3)sc12` [Example 158, N-(5-((2-(3,3-dimethylazetidin-1-yl)ethyl)carbamoyl)-2-methylpyridin-3-yl)-2-(pyridin-3-yl)pyrazolo[5,1-b]thiazole-7-carboxamide] are 156 nM and 32.5 nM.
As for `Cc1ncc(C(=O)NCCN2CCC3(CC3)C2)cc1NC(=O)c1cnn2cc(-c3cccnc3)sc12` [Example 159, N-(5-((2-(5-azaspiro[2.4]heptan-5-yl)ethyl)carbamoyl)-2-methylpyridin-3-yl)-2-(pyridin-3-yl)pyrazolo[5,1-b]thiazole-7-carboxamide], the IC50 in test [1] was 86.8 nM; in test [2] it was 21.6 nM.
For `Cc1ncc(C(=O)NCCN2CCC3(CC3)C2)cc1NC(=O)c1cnn2cc(-c3ccccn3)sc12` [Example 160, N-(5-((2-(5-azaspiro[2.4]heptan-5-yl)ethyl)carbamoyl)-2-methylpyridin-3-yl)-2-(pyridin-2-yl)pyrazolo[5,1-b]thiazole-7-carboxamide], the IC50 in test [1] is 25.3 nM; in test [2], 4.4 nM.
As to `Cc1ncc(C(=O)NCCN2CC(C)(C)C2)cc1NC(=O)c1cnn2cc(-c3cn(C)cn3)sc12` [Example 161], the results for the IC50 in test [1] and in test [2] were 123 nM and 11.9 nM, respectively.
With `Cc1ncc(C(=O)NCCN2CCC3(CC3)C2)cc1NC(=O)c1cnn2cc(-c3cn(C)cn3)sc12` [Example 162, N-(5-((2-(5-azaspiro[2.4]heptan-5-yl)ethyl)carbamoyl)-2-methylpyridin-3-yl)-2-(1-methyl-1H-imidazol-4-yl)pyrazolo[5,1-b]thiazole-7-carboxamide], the figures for the IC50 in test [1] and in test [2] were 660 nM and 7.7 nM, respectively.
Consider `Cc1ncc(C(=O)NCCN2CCCC2(C)C)cc1NC(=O)c1cnn2cc(-c3cn(C)cn3)sc12` [Example 163, N-(5-((2-(2,2-dimethylpyrrolidin-1-yl)ethyl)carbamoyl)-2-methylpyridin-3-yl)-2-(1-methyl-1H-imidazol-4-yl)pyrazolo[5,1-b]thiazole-7-carboxamide], for which the IC50 in test [1] amounted to 160 nM; in test [2] it was 3.9 nM.
As to `COCCn1cc(-c2cn3ncc(C(=O)Nc4cc(C(=O)NCCN5CCC(F)(F)CC5)cnc4C)c3s2)cn1` [Example 165, N-(5-((2-(4,4-difluoropiperidin-1-yl)ethyl)carbamoyl)-2-methylpyridin-3-yl)-2-(1-(2-methoxyethyl)-1H-pyrazol-4-yl)pyrazolo[5,1-b]thiazole-7-carboxamide], the IC50 in test [1] was 11.4 nM; in test [2], 3.4 nM.
For the compound `COCCn1cc(-c2cn3ncc(C(=O)Nc4cc(C(=O)NCCN5CC(C)(C)C5)cnc4C)c3s2)cn1` [Example 166, N-(5-((2-(3,3-dimethylazetidin-1-yl)ethyl)carbamoyl)-2-methylpyridin-3-yl)-2-(1-(2-methoxyethyl)-1H-pyrazol-4-yl)pyrazolo[5,1-b]thiazole-7-carboxamide], the IC50 in test [1] worked out at 233 nM; in test [2], 13.9 nM.
Turning to `COCCn1cc(-c2cn3ncc(C(=O)Nc4cc(C(=O)NCCN5CCC(F)(F)C5)cnc4C)c3s2)cn1` [Example 167, N-(5-((2-(3,3-difluoropyrrolidin-1-yl)ethyl)carbamoyl)-2-methylpyridin-3-yl)-2-(1-(2-methoxyethyl)-1H-pyrazol-4-yl)pyrazolo[5,1-b]thiazole-7-carboxamide], the IC50 in test [1] came out at 24.7 nM; in test [2] it was 4.2 nM.
Turning to `COCCn1cc(-c2cn3ncc(C(=O)Nc4cc(C(=O)NCCN5CC6(CCC6)C5)cnc4C)c3s2)cn1` [Example 168, N-(5-((2-(2-azaspiro[3.3]heptan-2-yl)ethyl)carbamoyl)-2-methylpyridin-3-yl)-2-(1-(2-methoxyethyl)-1H-pyrazol-4-yl)pyrazolo[5,1-b]thiazole-7-carboxamide], the IC50 in test [1] turned out to be 371 nM; in test [2], 17.4 nM.
As to `Cc1ncc(C(=O)NCCN2CCC23CCC3)cc1NC(=O)c1cnn2cc(-c3cnn(C)c3C)sc12` [Example 169, N-(5-((2-(1-azaspiro[3.3]heptan-1-yl)ethyl)carbamoyl)-2-methylpyridin-3-yl)-2-(1,5-dimethyl-1H-pyrazol-4-yl)pyrazolo[5,1-b]thiazole-7-carboxamide], the values for the IC50 in test [1] and in test [2] were 15 nM and 2.8 nM, respectively.
Turning to `Cc1ncc(C(=O)NCCN2CCC3(CC3)C2)cc1NC(=O)c1cnn2cc(-c3cnn(C)c3C)sc12` [Example 170, N-(5-((2-(5-azaspiro[2.4]heptan-5-yl)ethyl)carbamoyl)-2-methylpyridin-3-yl)-2-(1,5-dimethyl-1H-pyrazol-4-yl)pyrazolo[5,1-b]thiazole-7-carboxamide], the IC50 in test [1] is 33.7 nM; in test [2], 4.1 nM.
As to `Cc1ncc(C(=O)NCCN2CC3CCC2CC3)cc1NC(=O)c1cnn2cc(-c3cnn(C)c3C)sc12` [Example 171, N-(5-((2-(2-azabicyclo[2.2.2]octan-2-yl)ethyl)carbamoyl)-2-methylpyridin-3-yl)-2-(1,5-dimethyl-1H-pyrazol-4-yl)pyrazolo[5,1-b]thiazole-7-carboxamide], the IC50 in test [1] was 34.8 nM; in test [2], 2.6 nM.
With `Cc1ncc(C(=O)NCCN2C3CCC2CC3)cc1NC(=O)c1cnn2cc(-c3cnn(C)c3C)sc12` [Example 172, N-(5-((2-(7-azabicyclo[2.2.1]heptan-7-yl)ethyl)carbamoyl)-2-methylpyridin-3-yl)-2-(1,5-dimethyl-1H-pyrazol-4-yl)pyrazolo[5,1-b]thiazole-7-carboxamide], the results for the IC50 in test [1] and in test [2] were 66.6 nM and 3 nM, respectively.
Regarding `Cc1ncc(C(=O)NCCN2CCCC2(C)C)cc1NC(=O)c1cnn2cc(-c3cnn(C)c3C)sc12` [Example 173, 2-(1,5-dimethyl-1H-pyrazol-4-yl)-N-(5-((2-(2,2-dimethylpyrrolidin-1-yl)ethyl)carbamoyl)-2-methylpyridin-3-yl)pyrazolo[5,1-b]thiazole-7-carboxamide], the IC50 was 11.8 nM in test [1] and 3.1 nM in test [2].
In the same order, the values of `Cc1ncc(C(=O)NCCN2CCCC2(C)C)cc1NC(=O)c1cnn2cc(-c3cn(C)nc3C)sc12` [Example 174, 2-(1,3-dimethyl-1H-pyrazol-4-yl)-N-(5-((2-(2,2-dimethylpyrrolidin-1-yl)ethyl)carbamoyl)-2-methylpyridin-3-yl)pyrazolo[5,1-b]thiazole-7-carboxamide] are 9.9 nM and 2.5 nM.
Regarding `Cc1ncc(C(=O)NCCN2CCC23CCC3)cc1NC(=O)c1cnn2cc(-c3cn(C)nc3C)sc12` [Example 175, N-(5-((2-(1-azaspiro[3.3]heptan-1-yl)ethyl)carbamoyl)-2-methylpyridin-3-yl)-2-(1,3-dimethyl-1H-pyrazol-4-yl)pyrazolo[5,1-b]thiazole-7-carboxamide], the IC50 in test [1] is 16.6 nM; in test [2], 3.8 nM.
On to `Cc1ncc(C(=O)NCCN2CCCC23COC3)cc1NC(=O)c1cnn2cc(-c3cn(C)nc3C)sc12` [Example 176, N-(5-((2-(2-oxa-5-azaspiro[3.4]octan-5-yl)ethyl)carbamoyl)-2-methylpyridin-3-yl)-2-(1,3-dimethyl-1H-pyrazol-4-yl)pyrazolo[5,1-b]thiazole-7-carboxamide], for which the values for the IC50 in test [1] and in test [2] were 29.1 nM and 3.1 nM, respectively.
As for `Cc1ncc(C(=O)NCCN2CCC3(CC3)C2)cc1NC(=O)c1cnn2cc(-c3cn(C)nc3C)sc12` [Example 177, N-(5-((2-(5-azaspiro[2.4]heptan-5-yl)ethyl)carbamoyl)-2-methylpyridin-3-yl)-2-(1,3-dimethyl-1H-pyrazol-4-yl)pyrazolo[5,1-b]thiazole-7-carboxamide], the IC50 in test [1] was 18.2 nM; in test [2] it was 2.6 nM.
Take `Cc1ncc(C(=O)NCCN2CC3CCC2CC3)cc1NC(=O)c1cnn2cc(-c3cn(C)nc3C)sc12` [Example 178, N-(5-((2-(2-azabicyclo[2.2.2]octan-2-yl)ethyl)carbamoyl)-2-methylpyridin-3-yl)-2-(1,3-dimethyl-1H-pyrazol-4-yl)pyrazolo[5,1-b]thiazole-7-carboxamide]: the IC50 in test [1] amounted to 18.7 nM; in test [2], 1.8 nM.
